Measured values as given in BindingDB's records for doi:10.1021/jm00162a015 (1987).
pKi: −log10 of the molar value. Square brackets hold non-standard residues; d marks the D form. Peptide text beside a SMILES is read from it. * marks the point of attachment. Sta = CC(C)C[C@H](N)[C@@H](O)CC(=O)O; Boc = CC(C)(C)OC(=O)*

Biological target: Rhizopuspepsin (Rhizopus chinensis)
Assay: Compound was tested for inhibition of Rhizopus chinensis pepsin.

Structure (SMILES) | pKi
COC(=O)[C@H](CC(C)C)NC(=O)[C@@H](NC(=O)C[C@H](O)[C@H](CC(C)C)NC(=O)[C@H](C)NC(=O)[C@H](C)NC(=O)[C@H](Cc1ccccc1)NC(=O)OC(C)(C)C)C(C)C [2-[2-(4-{2-[2-(2-tert-Butoxycarbonylamino-3-phenyl-propionylamino)-propionylamino]-propionylamino}-3-hydroxy-6-methyl-heptanoylamino)-3-methyl-butyrylamino]-4-methyl-pentanoic acid methyl ester] (Boc-FAA[Sta]VL-OMe) | 7.11
COC(=O)[C@H](CC(C)C)NC(=O)[C@@H](NC(=O)[C@H](Cc1ccccc1)NC(=O)C[C@H](O)[C@H](CC(C)C)NC(=O)[C@H](C)NC(=O)[C@H](Cc1ccccc1)NC(=O)[C@H](Cc1ccccc1)NC(=O)OC(C)(C)C)C(C)C [2-{2-[2-(4-{2-[2-(2-tert-Butoxycarbonylamino-3-phenyl-propionylamino)-3-phenyl-propionylamino]-propionylamino}-3-hydroxy-6-methyl-heptanoylamino)-3-phenyl-propionylamino]-3-methyl-butyrylamino}-4-methyl-pentanoic acid methyl ester] (Boc-FFA[Sta]FVL-OMe) | 7.85
COC(=O)[C@H](CC(C)C)NC(=O)[C@@H](NC(=O)[C@H](Cc1ccccc1)NC(=O)C[C@H](O)[C@H](CC(C)C)NC(=O)[C@H](C)NC(=O)[C@H](CC(C)C)NC(=O)[C@H](Cc1ccccc1)NC(=O)OC(C)(C)C)C(C)C [2-{2-[2-(4-{2-[2-(2-tert-Butoxycarbonylamino-3-phenyl-propionylamino)-4-methyl-pentanoylamino]-propionylamino}-3-hydroxy-6-methyl-heptanoylamino)-3-phenyl-propionylamino]-3-methyl-butyrylamino}-4-methyl-pentanoic acid methyl ester] (Boc-FLA[Sta]FVL-OMe) | 8.04
COC(=O)[C@H](CC(C)C)NC(=O)[C@@H](NC(=O)[C@H](Cc1ccccc1)NC(=O)C[C@H](O)[C@H](CC(C)C)NC(=O)[C@H](C)NC(=O)[C@H](C)NC(=O)[C@H](Cc1ccccc1)NC(=O)OC(C)(C)C)C(C)C [2-{2-[2-(4-{2-[2-(2-tert-Butoxycarbonylamino-3-phenyl-propionylamino)-propionylamino]-propionylamino}-3-hydroxy-6-methyl-heptanoylamino)-3-phenyl-propionylamino]-3-methyl-butyrylamino}-4-methyl-pentanoic acid methyl ester] (Boc-FAA[Sta]FVL-OMe) | 7.29
